The source of these data is a melting point compilation (Tetko et al.; mined from patent text by program, amines drawn as free bases though some values may be those of a salt).

Take `CCOC(=O)C(C)=C(CC)NC(=O)Nc1cc(C(=O)OC(C)C)c(Cl)cc1F`: the melting point was 132 to 133 °C.
Next, `CCOC(=O)c1cnc2cc(Br)c(F)cc2c1O`: above 280 °C; `Fc1cccc(F)c1C1=NC(c2ccc(-c3ccc(C(F)(F)F)cc3)cc2)CO1` (configuration not stated): 148 to 149 °C; `O=C=Nc1c(F)cc(Cl)c2nc(Cl)sc12`: 95 to 98 °C.
The result for `COc1cccc(OC)c1-c1ccc(C[C@H](NC(=O)c2c(Cl)cc(-c3cnccn3)cc2Cl)C(=O)O)cc1` reads 146 °C.
Next, `CCN1Cc2ccccc2C(=O)c2cc(CC(=O)OC)ccc21`: 116 to 119 °C.
Take `Nc1cccc(Oc2cc(Oc3cccc(N)c3)cc(C(F)(F)F)c2)c1`: the melting point lay in the range of 98 to 98.6 °C.
The result for `COCCN1CCN(CCc2ccc(Nc3ncc4c(n3)-c3ccccc3C(c3ccccc3C(F)(F)F)C4)cc2)CC1` (configuration not stated) reads 139 to 140 °C; that for `CC(C)OCN1CCN(Cc2ccc(Cl)nc2)C1=NC#N`, 85 to 87 °C.
Next, `Cc1oc(C)c(C(=O)OC2CC(C)(C)NC(C)(C)C2)c1C`: 54 to 58 °C; `CC(C)COP(C)(=O)CC(O)CN1C(=O)c2ccccc2C1=O` (configuration not stated): 110 to 113 °C; `NC(=O)c1nc(-c2cccc(O)c2)nc2c1[nH]c(=O)n2-c1ccc(C(F)(F)F)cc1`: 360 to 364 °C.
Next, `CC(=O)NC1CCN(c2cccc(C)n2)CC1`: 145 to 147 °C; `CC(=O)OC1C=C(C)C(=O)CC(C)(C)C1OC(=O)C=Cc1ccccc1` (configuration not stated): 64 to 65 °C; `COc1ccccc1-c1nc(-c2cccnc2)c(C)[nH]1`: 198 to 200 °C.
For `CCOc1ccc(S(=O)(=O)N[C@H](CCCN2C(=O)c3ccccc3C2=O)C(=O)O)cc1`, the melting point fell in the range of 151 to 152 °C.
Consider `Cn1c(=O)c2c(ncn2CCCCCCl)n(C)c1=O`, for which the melting point lay within 78 to 80 °C.
The result for `CCOC(=O)C1=CC(c2cccc(C(F)(F)F)c2)=NN(C(=O)OCC)C1N1CCOCC1` (configuration not stated) reads 128 to 129 °C.
Next, `Nc1nc(/C(=N/OCC(=O)OC(c2ccccc2)c2ccccc2)C(=O)Sc2nc3ccccc3s2)cs1`: 152 °C; `CCOC(=O)C(=O)NNc1ccc(N)cc1`: 97 to 99 °C; `OC1=Cc2ccccc2C=Cc2ccccc21`: 120 to 121 °C.
The result for `O=Cc1nn2c3c(cccc13)CCC2` reads 119 to 120 °C; that for `CN(c1cc2ccccc2s1)c1nc(=O)c2cccnc2s1`, 220 to 221 °C; that for `CCC(=O)Nc1cccc(-c2ccnc3c(C(=O)c4cccs4)cnn23)c1`, 208 to 210 °C.
On to `COc1cc2nc(N3CCc4ccc([N+](=O)[O-])cc4C3)nc(N)c2cc1OC`, for which the melting point lay in the range of 135 to 137 °C.
Compound `Oc1ccc(-c2c3ccccc3c(Br)c3sc4ccccc4c23)cc1O` showed a melting point of 181 to 182 °C.
The result for `O=C(O)c1cc2cc(F)c(F)cc2nc1Cl` reads 232 °C; that for `CN(C)c1ccc(S(=O)c2ccccc2)cc1N` (configuration not stated), 85 to 86 °C.
The result for `COc1ccc(C(=O)O[Si](C)(C)C)cc1` reads 60 to 61 °C; that for `CCC1(CC)CC(c2ccc(OC)c(OC)c2)=NN(C2CCN(C(=O)c3ccccc3OC)CC2)C1=O`, 160 to 162 °C.
For the compound `COC(=O)CCn1c(=O)n(CCN2CCN(c3ccc(F)cc3)CC2)c(=O)c2cscc21`, the melting point lay in the range of 165 to 166 °C.
The result for `C=C(c1cccc(-c2cnnn2COCC)c1F)C(O)(Cn1cncn1)c1ccc(F)cc1F` (configuration not stated) reads 136 to 138 °C.
Next, `CN(C)C=Nc1ccc2nnc(-c3ccc([N+](=O)[O-])o3)n2n1`: 291 to 296 °C; `CSc1cc(SC)c(SC)cc1SC`: 127 to 129 °C.
For the compound `CC(=O)c1ccc2c(c1)C(=O)c1ccccc1CN2`, the melting point was in the range of 206 to 207 °C.
Compound `COc1cc(COc2nn(Cc3ccccc3)cc2CO)ccc1OCc1nc(-c2ccccc2)oc1C` came in with a melting point of 90 to 91 °C.
Next, `COc1cc(CCC(=O)CC(=O)c2ccc3ccccc3c2)ccc1O`: 101 to 102 °C; `C[C@H]1CN(c2cc3c(cc2F)c(=O)c(C(=O)O)cn3C2CC2)C[C@H]1N` (relative stereo): 268 to 270 °C; `Nc1ccccc1C(=O)N1CCN(CCc2ccc(Cl)cc2)CC1`: 108 to 109 °C.
The result for `Clc1ccc(C(c2ccccc2)c2cn[nH]c2)c(Cl)c1` (configuration not stated) reads 131 °C.
The result for `COc1cc(OC)nc(NS(=O)(=O)C(C(N)=O)C(C)C)n1` (configuration not stated) reads 147 to 150 °C; that for `CC(C)OCC(O)COc1ccc(/C=C/C(=O)O)c(Oc2ncc(C(F)(F)F)cc2Cl)c1` (configuration not stated), 92 to 93 °C.
Take `Cc1c(C(=O)Nc2ccc(OC3CCN(Cc4ccccc4)CC3)c(C#N)c2)cnn1-c1ccc(Cl)cc1`: the melting point worked out at 194 °C.
`CC(=O)OCC(=O)C1C(C)CC2C3CC(Cl)C4=CC(=O)C=CC4(C)C3C(O)CC21C` (configuration not stated) showed a melting point of 208 °C.
Compound `CC(NC(Nc1cc(F)cc(C(F)(F)F)c1)=C(C#N)S(C)(=O)=O)C(C)(C)C` (configuration not stated) returned a melting point of 183 to 185 °C.
`Cc1cccc(Cl)c1NC(=O)NCc1ccc2c(c1)CN(C1CCC(=O)NC1=O)C2=O` (configuration not stated): the melting point was 243 to 245 °C.
The result for `COC(=O)c1ncn2c1CN(C)C(=O)c1ccccc1-2` reads 212 to 214 °C; that for `CN(C)C(=S)Oc1ccc(C(=O)c2ccc(C#N)cc2)cc1`, 162 °C; that for `Nc1ccc(CCc2nc3ccccc3s2)cc1`, 79 to 81 °C.
The result for `COC1Nc2c(ccc(C)c2OC(C)=O)C(=O)N2CCCC12` (configuration not stated) reads 147 to 150 °C; that for `Cc1nc2cc(C(=O)NC(C)C)c(NC(=O)c3cc(C(F)(F)F)nn3-c3ncccc3Cl)c(Cl)c2nc1C`, 243 to 244 °C.
The result for `COc1ccnc(C(=O)N[C@H]2COC(=O)[C@H](CCOC(=O)c3ccccc3)[C@@H](OC(=O)C(C)C)[C@H](C)OC2=O)c1OCOC(=O)C(C)C` reads 48 to 50 °C.
Compound `CCCCn1c(COCC)nc2c(N)nc3ccc(-c4ccccc4)cc3c21` had a melting point of 186 to 187 °C.
`Cc1c(NC(=O)c2ccc(OCC3CCOC3)cc2)ccc2cc(CNC3CCCC3)cnc12` (configuration not stated) returned a melting point of 148 to 149 °C.
The result for `CCCCCCCCc1ccc(C(=O)CBr)cc1` reads 33 to 34 °C; that for `CCOC(=O)C=C(C)C=CC=C(C)C=Cc1c(Cl)cc(OC)c(Cl)c1Cl`, 126 to 128 °C.
The result for `CCCCOC(=O)NS(=O)(=O)CCc1c(C(F)(F)F)nn(C)c1-n1ccc2cc(Cl)cnc21` reads 136 to 137 °C; that for `COCn1c(-c2nc3c(OC)ccc(N4CCOCC4)c3s2)nc2ccc(Cl)nc21`, 167 to 170 °C; that for `CCOC(=O)Cc1nn(Cc2nc(-c3ccccc3C(F)(F)F)no2)c(=O)c2ccccc12`, 111 to 115 °C.
Take `O=[N+]([O-])c1ccc(NC2CC2)cc1`: the melting point fell in the range of 126 to 128 °C.
Take `Cc1cc2c(cc1O)C(C)(C)CC1(CC(C)(C)c3cc(OC(C)(C)C(=O)O)c(C)cc3O1)O2` (configuration not stated): the melting point fell in the range of 99 to 101 °C.
Next, `CC1SC(=O)NN=C1c1ccc2c(c1)C1(CCCS1)C(=O)N2` (configuration not stated): 205 °C; `CCc1nc(C(=O)NCCc2ccc(S(N)(=O)=O)cc2)no1`: 159 to 160 °C.
Next, `COc1ccccc1CNc1cc(C(N)=O)c([N+](=O)[O-])cc1[N+](=O)[O-]`: 198 to 202 °C; `CSC(Oc1cc(I)c2ncc(Br)cc2c1)C(=O)NC(C)(C)C` (configuration not stated): 171 to 172 °C; `COCCNC(=O)c1ccc(CN2C(=O)C3(COc4cc5c(cc43)CCO5)c3ccccc32)cc1` (configuration not stated): 182 to 183 °C.
Next, `O=S(=O)(c1ccc(Oc2ccccc2)cc1)c1ccc(Oc2ccccc2)cc1`: 142 to 143 °C.
In turn, `OCCCc1cn(C(c2ccccc2)(c2ccccc2)c2ccccc2)cn1` registered a melting point of 130 °C.
Next, `CCOC(=O)Nn1cccc1C(=O)c1ccc(Cl)cc1Cl`: 114 to 116 °C; `CC(=O)N1C=C(c2ccccc2)NC(=O)C1C(C)C` (racemic): 182 to 185 °C.
The result for `O=C1OCCC12Sc1ccc(S(=O)(=O)N3CCCCC3)cc1C2=O` (configuration not stated) reads 159 to 161 °C.
Next, `OCC(CO)OCc1ccccc1`: 38 to 39 °C.
In the case of `O=C(O)CCSC(CCCc1ccccc1)c1ccc(OCc2ccc3ccccc3n2)cc1` (configuration not stated), the melting point lay in the range of 97 to 100 °C.
Take `COc1cccc2cc(C(=O)c3ccc(Cl)c(S(N)(=O)=O)c3)oc12`: the melting point lay in the range of 167 to 171 °C.
The result for `CCn1c2ccccc2c2cc([N+](=O)[O-])ccc21` reads 118 to 120 °C.
`O=c1ccccn1C1c2cc(S(=O)c3ccccc3)ccc2OCCC1O` (configuration not stated) gave a melting point of 181 to 184 °C.
Next, `CC(=O)NCC(C)(C)c1ccc2nc(-c3ccncc3)[nH]c2c1`: 219 to 225 °C; `Cc1nc2c(O)cccn2c(=O)c1Cc1ccccc1`: 124 to 125 °C; `CC(=O)N(C#N)C1(c2ccc(OCc3ccc4ccccc4n3)cc2)CCCCC1`: 90 °C.
The result for `CCC(C)(CC)c1ccc(N)nn1` reads 56 to 58 °C; that for `ClCc1nnc2n1-c1ccc(Cl)cc1C(c1ccccc1Cl)=NC2`, 195 to 198 °C; that for `C#CCn1c(=O)n(C)c(=O)c2c1nc(Cl)n2Cc1ccccc1`, 169 to 172 °C.
The result for `CC1NC(=O)OC1c1ccc(C(F)(F)F)cc1` (configuration not stated) reads 158 to 159 °C; that for `CC(C)(CCCCCCC(=O)CCCCCCC(C)(C)C(=O)O)C(=O)O`, 74.5 to 76 °C.
Compound `CN(C)CCCN=C1CC(c2ccc(Cl)cc2Cl)Cc2[nH]c3ccc(Cl)cc3c(=O)c21` (configuration not stated) returned a melting point of 168 to 170 °C.
The result for `CCOC(=O)c1cnc2c(OC)csc2c1Nc1ccccc1C` reads 141 to 143 °C; that for `CC(C)(Sc1ccc2c(-c3ccccc3F)noc2c1Cl)C(=O)O`, 149 °C.
